Like-named read-outs stand apart in the source and are kept apart here.
Legend:
p27Kip1 [1] = assay: p27Kip1 protein level by Western blot in 5 L cells and BP8 derivatives; assay type: cell-based, rat
Experimental: After it had been found by introductory experiments that the effect of dioxin on the cell cycle required gene expression which was continuous and induced, experiments were carried out to investigate the Ah receptor-dependent, cell cycle-regulating genes by characterizing biochemical changes in the course of the cell cycle (Lees, E., Curr. Opin. Cell Biol. 7, 773 (1995); Morgan, D. O., Nature 374, 131 (1995). The levels of cyclins D and E, which are involved in the G1-S transition in the cell cycle, as well as their associated cyclin-dependent kinases (cdks 2 and 4), were not reduced by dioxin treatment (see FIG. 2A). The levels of cyclins D2 and D3 were even raised, presumably because the cells are frozen in a state which is per se associated with a high level of these cyclins. […] The expected accumulation of a slowly migrating form of cdk2, which is presumably not phosphorylated at Thr-160 (Polyak, loc. cit.), was found in the same precipitates (FIG. 2D). […]
(§1) Biochemical properties of G1-phase cyclin/cdk complexes were analysed using 30-60%-confluent, asynchronous cell cultures which, apart from those in section E, had been subjected to a 24-hour treatment with TCDD or 0.1% of the DMSO solvent. The quantities of G1-phase cyclins D1, D2, D3 and E, and also cdks 2 and 4(A) were determined by Western blot in extracts which had been prepared by lysis using a mild detergent (Matsushime, H. et al. Mol. Cell Biol. 14, 2066 (1994)). Cyclin E-dependent histone H1 kinase activity (B) was measured in an immune complex kinase assay (Matsushime, loc. cit.) following precipitation with an anti-cyclin E antibody (lanes 1 and 2) or a corresponding anti-AP-2 antibody as the negative control (lanes 3 and 4). The levels of p27Kip1 protein (C) were determined by Western blot in whole-cell extracts prepared from TCDD-treated cultures of AhR-expressing 5 L wild-type cells, their AhR-deficient BP8AhR-derivatives and BP8 cells which were expressing AhR ectopically (BP8AhR+) (Weiss, loc. cit.). […]

5 L cells [2] = assay: Cell cycle distribution by flow cytometry in transfected 5 L cells; assay type: cell-based, rat
Excerpt: Genetic indications of a causal role for Kip1 induction in dioxin-induced cell cycle retardation were obtained by transiently expressing a Kip1 antisense RNA in order to inactivate Kip1. Coexpression of green fluorescent protein (GFP, Heim, A. B. et al., Nature 373, 663 (1997)) enabled flow cytometry to be used to detect efficiently transfected cells (FIG. 3A). […] When Kip1 antisense RNA was expressed together with GFP, the TCDD effect on cell cycle distribution was interrupted in the efficiently transfected subpopulation of cells (FIG. 3B, third row). In the non-transfected subpopulation from the same cell culture, TCDD retarded the progress of the cell cycle in the expected manner (FIG. 3B, last row). In this context, it is to be noted that the electroporation reduced sensitivity to dioxin such that the observed effects on the cell cycle were less pronounced than in non-transfected cells, for example 1.5-2-fold as compared with 3-4-fold in non-electroporated cells (Weiss, loc. cit.).
5 L cells were transiently cotransfected with expression vectors for a Kip1 antisence RNA and GFP (part B, lower panel) or with the empty expression vector and GFP (part B, upper panel). 32 h after the transfection, the cells were treated with 1 nM TCDD or 0.1% DMSO solvent, as the control, and harvested, for the analysis by flow cytometry 18 h later, using trypsin. (A) The GFP-expressing subpopulation of transfected cells (thick line) was identified by means of a high green fluorescence (GFP) as compared with untransfected cells (thin line). (B) Cell cycle profiles were determined by staining with H33258 and analysed individually for efficiently transfected (approx. 5%), green-fluorescing subpopulations (rows 1 and 3) and untransfected subpopulations (rows 2 and 4) in the presence of 1 nM TCDD (right-hand panels) or 0.1% DMSO solvent (left-hand panels).

p18-Ink and p21-Cip1 = assay: Levels of other cdk inhibitors in 5 L cells; assay type: cell-based, rat
Experimental: After it had been found by introductory experiments that the effect of dioxin on the cell cycle required gene expression which was continuous and induced, experiments were carried out to investigate the Ah receptor-dependent, cell cycle-regulating genes by characterizing biochemical changes in the course of the cell cycle (Lees, E., Curr. Opin. Cell Biol. 7, 773 (1995); Morgan, D. O., Nature 374, 131 (1995). The levels of cyclins D and E, which are involved in the G1-S transition in the cell cycle, as well as their associated cyclin-dependent kinases (cdks 2 and 4), were not reduced by dioxin treatment (see FIG. 2A). The levels of cyclins D2 and D3 were even raised, presumably because the cells are frozen in a state which is per se associated with a high level of these cyclins. […] The expected accumulation of a slowly migrating form of cdk2, which is presumably not phosphorylated at Thr-160 (Polyak, loc. cit.), was found in the same precipitates (FIG. 2D). […] The rise in the level of the p27Kip1 protein was accompanied by a fourfold induction of Kip1 mRNA (FIG. 2E, lanes 1 and 2).

p27Kip1 [3] = assay: p27Kip1 protein by Western blot in foetal thymus organ culture thymocytes; assay type: cell-based, mice; conditions: 2 days of FTOC, 1 nM, compared with solvent cultures
Excerpt: An important target for dioxin toxicity is the thymus, which suffers an AhR-dependent atrophy (Poland, A. et al., Annu. Rev. Pharmacol. Toxicol. 22, 517 (1982); Fernandez-Salguero, P. et al., Science 268, 722 (1995)). Foetal thymus organ culture (FTOC) provides a useful model for studying dioxin activities (Lai, Z. W. et al., Mol. Pharmacol. 52, 30 (1997), and the literature references which are cited therein). After only 2 days of FTOC, a 3-fold induction of Kip1 protein was found in thymocytes which had been prepared from TCDD-treated cultures as compared with cultures which had only been exposed to the solvent (FIG. 4A). This was accompanied by a decrease in the proliferation of the thymocytes, as shown by a reduced incorporation of ^3H-thymidine into the thymocyte DNA (75±7%) and a drop, from 32±3% down to 24±1%, in the number of cells in the S and G2 phases of the cell cycle (a representative example from 3 similar experiments is shown in FIG. 4B). […]
Foetal thymus glands from C57B16 mice were explanted after 14.5 days of pregnancy and cultured for 2 days in the presence of 1 nM TCDD or 0.1% DMSO solvent prior to preparing thymocytes. p27Kip1 protein (A) was determined by Western blot in 10^5 thymocytes. […] The cell cycle distribution of the total lymphocyte population (B) was determined by means of flow cytometry following DNA staining with H33258 bisbenzimide dye.

5 L cells [4] = assay: Cell cycle progress by Rb protein phosphorylation, Western blot, synchronised 5 L cells; assay type: cell-based, rat; conditions: 1 nM, 2 h before analysis, 8 h after serum stimulation, FIG. 1
Experimental: 5 L cells were frozen in their growth by being fasted in serum-free medium for 24 h and synchronously released from the block in the cell cycle by the addition of serum. The progress in the cell cycle was monitored by Western blot analysis, by determining the accumulation of phosphorylated Rb protein (upper arrow) in relation to hypophosphorylated Rb protein (lower arrow) 8 h after stimulating with the serum. 2 h before the analysis, the cells were treated with 1 nM TCDD, the transcription inhibitor actinomycin D (5 μg/ml) or both these compounds. The culture conditions have been described previously (Weiss, C. et al. Exp. Cell Res. 226, 154 (1996)), and extracts were prepared by lysing the cells in denaturing SDS sample buffer.

[5] = test system: p27Kip1 associated with cyclin E; assay: Immunocoprecipitation with anti-cyclin E antibody, Western blot of p27Kip1; assay type: cell-based, rat; conditions: 5 L cells, immunocoprecipitation analysis, FIG. 2D
Experimental: (§2) After it had been found by introductory experiments that the effect of dioxin on the cell cycle required gene expression which was continuous and induced, experiments were carried out to investigate the Ah receptor-dependent, cell cycle-regulating genes by characterizing biochemical changes in the course of the cell cycle (Lees, E., Curr. Opin. Cell Biol. 7, 773 (1995); Morgan, D. O., Nature 374, 131 (1995). The levels of cyclins D and E, which are involved in the G1-S transition in the cell cycle, as well as their associated cyclin-dependent kinases (cdks 2 and 4), were not reduced by dioxin treatment (see FIG. 2A). […]
as §1, with “4).” for “4). The levels of p27Kip1 protein (C) were determined by Western blot in whole-cell extracts prepared from TCDD-treated cultures of AhR-expressing 5 L wild-type cells, their AhR-deficient BP8AhR-derivatives and BP8 cells which were expressing AhR ectopically (BP8AhR+) (Weiss, loc. cit.).”

[6] = test system: cyclins D1, D2, D3 and E, cdks 2 and 4; assay: Western blot of G1-phase cyclins and cdks in 5 L cells; assay type: cell-based, rat; conditions: 24-hour treatment, FIG. 2A
Experimental: as §2
as §1, with “4).” for “4). The levels of p27Kip1 protein (C) were determined by Western blot in whole-cell extracts prepared from TCDD-treated cultures of AhR-expressing 5 L wild-type cells, their AhR-deficient BP8AhR-derivatives and BP8 cells which were expressing AhR ectopically (BP8AhR+) (Weiss, loc. cit.).”

[7] = test system: cyclin E-associated histone H1 kinase; assay: Cyclin E-dependent histone H1 kinase activity, immune complex kinase assay; assay type: cell-based, rat; conditions: 5 L cells, 24-hour treatment, FIG. 2B
Experimental: as §2
as §1, with “4).” for “4). The levels of p27Kip1 protein (C) were determined by Western blot in whole-cell extracts prepared from TCDD-treated cultures of AhR-expressing 5 L wild-type cells, their AhR-deficient BP8AhR-derivatives and BP8 cells which were expressing AhR ectopically (BP8AhR+) (Weiss, loc. cit.).”

thymocytes = assay: Thymocyte proliferation and cell cycle distribution in foetal thymus organ culture; assay type: cell-based, mice; conditions: for % in G2/S: 2 days of culture, mean ± S.D., 3 experiments
Excerpt: An important target for dioxin toxicity is the thymus, which suffers an AhR-dependent atrophy (Poland, A. et al., Annu. Rev. Pharmacol. Toxicol. 22, 517 (1982); Fernandez-Salguero, P. et al., Science 268, 722 (1995)). Foetal thymus organ culture (FTOC) provides a useful model for studying dioxin activities (Lai, Z. W. et al., Mol. Pharmacol. 52, 30 (1997), and the literature references which are cited therein). After only 2 days of FTOC, a 3-fold induction of Kip1 protein was found in thymocytes which had been prepared from TCDD-treated cultures as compared with cultures which had only been exposed to the solvent (FIG. 4A). This was accompanied by a decrease in the proliferation of the thymocytes, as shown by a reduced incorporation of ^3H-thymidine into the thymocyte DNA (75±7%) and a drop, from 32±3% down to 24±1%, in the number of cells in the S and G2 phases of the cell cycle (a representative example from 3 similar experiments is shown in FIG. 4B). While the proliferation rate in all the early thymocyte subpopulations was reduced independently of the status of CD4 or CD8 expression (Table 1), the effect was more strongly pronounced in the predominantly immature, double negative subpopulation and in a small CD4low/+/CD8-subpopulation.
Foetal thymus glands from C57B16 mice were explanted after 14.5 days of pregnancy and cultured for 2 days in the presence of 1 nM TCDD or 0.1% DMSO solvent prior to preparing thymocytes. p27Kip1 protein (A) was determined by Western blot in 10^5 thymocytes. Uniform loading of the gel was ensured by probing the blots once again with an Erk1 antibody (one of three representative examples is shown). The cell cycle distribution of the total lymphocyte population (B) was determined by means of flow cytometry following DNA staining with H33258 bisbenzimide dye.
Thymocytes from foetal thymus glands were collected after 2 days of culture in the presence or absence of TCDD and analysed for their cell cycle distribution. The values are mean values±S.D. from 3 independent experiments.

5 L cells [8] = conditions: non-electroporated cells (Weiss, loc. cit.); cited from earlier work
Kip1 mRNA = Kip1 mRNA by Northern blot in 5 L cells; assay type: cell-based, rat

## Clc1cc2c(cc1Cl)Oc1cc(Cl)c(Cl)cc1O2 [TCDD]
p27Kip1 [1]; 5 L wild-type cells, exposure from 4 to 72 hours, FIG. 2C
  level of p27Kip1 by Western blot: raised in every case
p27Kip1 [1]; AhR-poor subclone of 5 L cells (BP8-AhR−)
  upregulation of p27Kip1: not possible to observe dioxin-dependent upregulation
p27Kip1 [1]; BP8 subclone with ectopic expression of the AhR (BP8-AhR+)
  induction of p27Kip1: induction was restored
5 L cells [2]; GFP with empty expression vector, transfected and non-transfected cells, 1 nM, 18 h
  relative number of cells in S/G2: reduced
5 L cells [2]; efficiently transfected subpopulation expressing Kip1 antisense RNA with GFP, 1 nM
  TCDD effect on cell cycle distribution: interrupted
5 L cells [2]; electroporated cells
  observed effects on the cell cycle: 1.5-2 fold
5 L cells [2]; non-transfected subpopulation of the Kip1 antisense culture, 1 nM
  progress of the cell cycle: retarded
p18-Ink and p21-Cip1
  p18-Ink and p21-Cip1 levels: not noticeably altered
p27Kip1 [3]
  induction of Kip1 protein in thymocytes: 3 fold
5 L cells [4]
  progress of the cell cycle (phosphorylated versus hypophosphorylated Rb protein): transcription-dependent retardation
[5]
  quantities of p27Kip1 associated with cyclin E: increased quantities
[6]
  levels of cyclins D2 and D3: even raised
  levels of cyclins D and E and associated cyclin-dependent kinases (cdks 2 and 4): not reduced
[7]
  cyclin E-associated histone H1 kinase activity: substantially reduced
thymocytes; 2 days of FTOC, 1 nM
  incorporation of 3H-thymidine into the thymocyte DNA: 75±7%
thymocytes; CD4+/CD8+ thymocytes
  % in G2/S: 35 ± 10%
thymocytes; CD4+/CD8− thymocytes
  % in G2/S: 24 ± 4%
thymocytes; CD4−/CD8+ thymocytes
  % in G2/S: 32 ± 6%
thymocytes; CD4−/CD8− thymocytes
  % in G2/S: 18 ± 2%
thymocytes; total thymocyte population, 2 days of FTOC, 1 nM
  number of cells in the S and G2 phases of the cell cycle: 24±1%
5 L cells [8]
  observed effects on the cell cycle: 3-4 fold
Kip1 mRNA; 5 L cells, 4-hour exposure, FIG. 2E
  induction of Kip1 mRNA: fourfold
Kip1 mRNA; following interruption of transcription by actinomycin D
  breakdown of Kip1 mRNA: did not affect

## C[C@@H]1C[C@@H]([C@H](O)CC2CC(=O)NC(=O)C2)C(=O)[C@@H](C)C1 [cycloheximide]
Kip1 mRNA; 30-minute pretreatment, 20 μg/ml, then 4-hour TCDD
  effect on TCDD induction of Kip1 mRNA: had no effect
